The source of these data is patent US20070270413A1, “Mirtazapine for the treatment of neuropathic pain” (N.V. Organon, priority 2006, published 2007).

For data set [1], the system named is mechanical allodynia induced by ligation of the L5 spinal nerve. As to the kind of experiment: Chung neuropathic model: mechanical allodynia, paw withdrawal threshold to von Frey filaments. The class given is in vivo, rat. From the text:
The Chung Neuropathic Model is an animal model of neuropathic pain. Animals with tight ligation of the L5 spinal nerve develop hyperalgesia and allodynia that can be measured using standard behavioural paradigms. Chung surgery: animals were anaesthetized with isoflurane administered in oxygen. Under sterile conditions, a longitudinal incision (about 5 mm lateral from the midline) was made at the lower lumbar-sacral level, exposing the paraspinal muscles on the left. The paraspinal muscles were then isolated and removed from the L4 spinous process to the sacrum using small blunt scissors. This opened up the space ventrolateral to the articular processes, dorsal to the L6 transverse process, and medial to the ileum. Small roungers were used to remove the L6 transverse process as completely as possible. The L5 spinal nerve was then isolated and tightly ligated. Upon completion of the operation, haemostasis was confirmed and the wound closed in layers using silk sutures and metal clips. Anaesthesia was then discontinued. Animals were kept in a cage with warm bedding until they had completely recovered from anaesthesia. The rats' withdrawal threshold to a mechanical stimulus (calibrated von Frey filaments) was measured (baseline reading). Rats were placed on an elevated (˜40 cm) mesh floor in Perspex boxes and filaments of increasing force (2.6-167 mN) were applied to the plantar surface of the paw using an up and down method (Chaplan et al., 1994). The paw was touched with one of a series of 8 von Frey hairs with logarithmically incremental stiffness. The von Frey hair was presented perpendicular to the plantar surface with sufficient force to cause buckling against the paw, and held for approximately 1-3 seconds. A positive response was noted if the paw was sharply withdrawn. A cut-off of 15 g was selected as the upper limit for testing, since stiffer hairs tend to raise the entire limb rather than buckling, substantially changing the nature of the stimulus. […] Data were expressed as mean±s.e.m. and compared between groups using the Kruskal-Wallis one-way analysis of variance, a non-parametric statistical test. Each of the treatment groups were then compared against the vehicle group, using the non-parametric Dunn's test. The time of maximum effect (Tmax) was calculated.

Data set [2] shares this test system. The data set is described as above. Format: in vivo, rat. As to conditions: 10 and 30 μmol/kg, 40 min after administration, P<0.05 vs vehicle (Mann Whitney).
A short description of data set [3]: Side effects observed after s.c. dosing in the Chung neuropathic model.
Procedure: Following baseline measurements each animal was anaesthetised and the L5 spinal nerve tightly ligated. The animals were allowed to recover from the surgery for a period of at least five days. On the day of drug administration, the paw withdrawal thresholds were re-measured (0 min). […] Readings were then made at regular intervals after compound injection.

For `CN1CCN2c3ncccc3Cc3ccccc3C2C1` (racemic) [Racemic mirtazapine, mirtazapine], the “Effect on withdrawal threshold” value in data set [1] (10 and 30 μmol/kg, 40 min after administration, not dose-dependent) is listed as “small but significant effect”. Moreover, the Withdrawal threshold result in data set [2] is on record as “up to 4 g”.

Take `CN1CCN2c3ncccc3Cc3ccccc3[C@H]2C1` [S(+)-mirtazapine]: the Tmax (time of maximum effect) was 1 h in data set [1] (0.3 μmol/kg s.c.); 1 h in data set [1] (3 μmol/kg s.c.); 1 h in data set [1] (30 μmol/kg s.c., Table 1); 1 h in data set [1] (60 μmol/kg s.c.); 1 h in data set [1] (120 μmol/kg s.c.). In data set [1] (120 μmol/kg s.c.), the “Reversal of mechanical allodynia” value is 53 % of the baseline. The Anti-allodynic activity result in data set [1] (60 and 120 μmol/kg s.c.) is on record as “Anti-allodynic activity”. For the same compound, in data set [1] (subcutaneous administration, maleate salt), the “Effect on mechanical allodynia” value is listed as “significantly attenuated”. In addition, in data set [3] (120 μmol/kg s.c.), the Injection site finding entry is given as “necrosis at site of injection”. In data set [3] (120 μmol/kg s.c.), the “Reaction on injection (s.c.)” value was “vocalisation/struggle on injection”. The “Behaviour when returned to holding cages after testing” value in data set [3] (60 and 120 μmol/kg group) was “hyperactive/excitable behaviour”.

With R-mirtazapine [reference compound], the Tmax (time of maximum effect) in data set [1] (10 μmol/kg s.c., Table 2) came out at 0.5 h; in data set [1] (30 μmol/kg s.c., Table 2) it was 0.5 h; in data set [1] (100 μmol/kg s.c., Table 2), 0.5 h. Besides, the “Effect on mechanical allodynia” value in data set [1] (10-100 μmol/kg s.c., free base) is recorded as “no effect”. For the same compound, the Anti-allodynic activity result in data set [1] (doses up to 100 μmol/kg s.c.) is “no effect”.
